Laboratory results reported in patent publication US10844062B2, “Pyridine derivative inhibiting RAF kinase and vascular endothelial growth factor receptor, method for preparing same, pharmaceutical composition containing same, and use thereof” (SAMJIN PHARMACEUTICAL CO., LTD., priority 2016, dated 2020).
Where two headings read alike, the source gives them in different places.

What was measured:
[1] = system: LS513 human colorectal cancer cell line xenograft; experiment: Antitumor effect on human colorectal cancer LS513 cell line xenograft; assay type: in vivo, Balb/c nu/nu nude mice; conditions: oral, twice a day, 60 mg/kg or 30 mg/kg (dose not specified per compound), 14 days
From the text: In this experiment, 5 to 6-week-old female Balb/c nu/nu nude mice (weighed 18 to 20 g) were used. The mice were provided from Nara Biotech Co., Ltd. During the experiment, all the animals were housed on a mouse constant temperature/constant humidity shelf (Individually Ventilated Cages System, LAB & BIO).
Each cage (37.2 cm length×19.2 cm width×13.1 cm height) was sterilized with a sterilizer, and eight mice were received in each cage. The mice were maintained in a hygienic environment controlled to a temperature of 20 to 24° C. and a humidity of 40 to 70% with a 12-hr light/12-hr dark cycle. The mice were allowed to access sterilized feed and drinking water ad libitum. The care and treatment of these animals were carried out according to the Laboratory Animal Care Guidelines of Samjin Pharmaceutical Co., Ltd.
The mice were acclimated to the housing facility for 1 week, and then 0.1 mL of a cell suspension containing 1×10^7 cells was injected subcutaneously into the right flank of each mouse. After cell transplantation, the volume of the formed tumor was measured, and mice with formed tumors having a volume of 150 mm^3 or more were randomly divided into groups (each consisting of 7 to 8 animals) for treatment with the test compounds and a control. […] Administration of the drugs was continued for 14 days. […] At 3-day intervals from the starting day of the administration, the long axis and short axis of the tumor were measured with digital vernier calipers, and the tumor volume was calculated using the following equation and recorded: Tumor volume (TV)=Long axis×short axis^2/2.
Tumor growth inhibition for absolute tumor volume was calculated using the following equation. In the following equation, V0 is the tumor volume on the first day of drug administration (day 0), and Vt is the tumor volume after last drug administration.

LS513 KRAS G12V (colon) = experiment: MTT assay; assay type: cell-based; conditions: Homo sapiens, LS-513, 72 h, 3 days incubation, read-out: MTT assay IC50 KRAS mutant (Colon) LS513 KRAS G12V
Method in brief: (§1)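 Cells were seeded at line-dependent density and stabilised overnight at 37 °C, then exposed to compounds for 3 days at 37 °C. MTT was then added for 2 h and the formazan dissolved in DMSO.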

B-Raf V600E = B-Raf V600E (Homo sapiens (Human), UniProt P15056, V600E); experiment: Raf kinase inhibitory activity (Raf/MEK1/MAPK2 cascade, MBP phosphorylation, 32P); assay type: biochemical
Sequence of B-Raf V600E (P15056 whole entry V600E): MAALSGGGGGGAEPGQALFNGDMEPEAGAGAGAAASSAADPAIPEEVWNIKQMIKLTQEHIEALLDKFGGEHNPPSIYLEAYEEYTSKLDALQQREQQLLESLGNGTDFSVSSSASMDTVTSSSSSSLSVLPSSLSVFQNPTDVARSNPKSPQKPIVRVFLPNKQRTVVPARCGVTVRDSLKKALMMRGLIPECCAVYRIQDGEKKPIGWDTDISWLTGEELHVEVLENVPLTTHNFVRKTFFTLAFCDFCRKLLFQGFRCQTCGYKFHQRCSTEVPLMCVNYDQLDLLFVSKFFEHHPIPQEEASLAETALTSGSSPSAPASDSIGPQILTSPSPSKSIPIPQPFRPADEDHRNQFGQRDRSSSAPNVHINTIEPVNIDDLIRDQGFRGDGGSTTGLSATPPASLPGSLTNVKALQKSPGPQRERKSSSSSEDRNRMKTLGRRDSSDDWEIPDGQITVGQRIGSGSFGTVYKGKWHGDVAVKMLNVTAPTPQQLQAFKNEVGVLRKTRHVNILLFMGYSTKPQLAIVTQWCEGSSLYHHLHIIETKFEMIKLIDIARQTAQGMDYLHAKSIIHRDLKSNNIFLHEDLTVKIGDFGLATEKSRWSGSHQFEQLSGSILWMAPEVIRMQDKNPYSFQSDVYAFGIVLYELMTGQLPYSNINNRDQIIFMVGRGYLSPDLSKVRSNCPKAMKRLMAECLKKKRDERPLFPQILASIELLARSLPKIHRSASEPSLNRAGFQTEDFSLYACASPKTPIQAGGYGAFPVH
Description: (§2) In order to examine the inhibitory activities of the compounds of the present invention against Raf kinases (B-Raf, C-Raf, B-Raf^V600E), the following experiment was performed.
(§3) (1) Consecutive Signal Transduction Reaction
(§4) To a centrifugation tube, 20 μl of a dilution solvent (20 mM MOPS, pH 7.2, 25 mM (3-glycerol phosphate, 5 mM EGTA, 1 mM sodium orthovanadate, 1 mM dithiothreitol) and 20 μl of a Mg/ATP mixture (500 μM ATP and 75 mM magnesium chloride) were added. Then, each of the derivative compounds of formula 1 was added. As a control, 1 ng of activated raf, 0.4 ng of inactivated MEK1 and 1 μg of inactivated MAPK2 were added without adding Example compounds. The solutions in the tube were concentrated at the bottom of the tube by centrifugation, and then allowed to react at 30° C. for 30 minutes, and 4 μl of the mixture solution was taken and used in the next experimental step.
(§5) (2) Phosphorylation of Substrate Protein MBP by MAPK2
(§6) To 4 μl of the mixture solution taken in (1), 10 μl of a dilution solvent, 20 μg of MBP as a substrate, and 10 μl of diluted [γ-32P]ATP (1 μCi/μL) were added. The solutions in the tube were concentrated at the bottom of the tube by centrifugation, and then allowed to react at 30° C. for 30 minutes. 25 μl of the reaction solution was carefully placed on the center of 2 cm×2 cm P81 filter paper for 30 seconds. Next, the filter paper was washed three times with 0.75% phosphoric acid solution for 10 minutes each time and washed once with acetone for 5 minutes. Next, the filter paper was transferred into a scintillation vial, and 5 ml of a scintillation cocktail was added thereto. Raf activity inhibition rate (IC50) was measured by reading the radioactivity with a scintillation counter in comparison with the control.

C-Raf = C-Raf (Homo sapiens (Human), UniProt P04049); experiment: as above; assay type: biochemical
Sequence of C-Raf (P04049 whole entry): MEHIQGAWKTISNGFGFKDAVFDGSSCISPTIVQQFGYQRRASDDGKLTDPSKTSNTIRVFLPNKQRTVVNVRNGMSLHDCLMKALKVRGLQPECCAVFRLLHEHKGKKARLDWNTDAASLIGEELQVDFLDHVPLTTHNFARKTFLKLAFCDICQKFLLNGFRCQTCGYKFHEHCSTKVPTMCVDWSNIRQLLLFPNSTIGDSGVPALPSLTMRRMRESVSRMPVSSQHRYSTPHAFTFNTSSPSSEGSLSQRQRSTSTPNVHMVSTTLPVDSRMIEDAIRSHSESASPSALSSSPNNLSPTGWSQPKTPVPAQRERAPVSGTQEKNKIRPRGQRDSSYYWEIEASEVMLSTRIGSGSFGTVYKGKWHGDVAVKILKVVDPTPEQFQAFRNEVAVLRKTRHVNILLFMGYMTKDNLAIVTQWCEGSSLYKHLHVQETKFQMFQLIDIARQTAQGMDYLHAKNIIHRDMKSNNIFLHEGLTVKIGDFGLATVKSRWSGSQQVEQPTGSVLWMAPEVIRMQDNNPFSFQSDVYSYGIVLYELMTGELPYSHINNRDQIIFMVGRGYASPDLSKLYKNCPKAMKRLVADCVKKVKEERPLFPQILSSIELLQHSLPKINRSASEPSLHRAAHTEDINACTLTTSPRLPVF
Description: as §2, §3, §4, §5, §6

B-Raf = B-Raf (Homo sapiens (Human), UniProt P15056); experiment: as above; assay type: biochemical
Sequence of B-Raf (P15056 whole entry): as the sequence (P15056 whole entry V600E) above, with E600V counted along it
Description: as §2, §3, §4, §5, §6

[2] = system: LS513 human colorectal cancer cell line xenograft; experiment: Antitumor effect on human colorectal cancer LS513 cell line xenograft; assay type: in vivo, Balb/c nu/nu nude mice; conditions: 50 mg/kg, oral, once a day, 13 days
[3] = system: HCT-116 KRAS G13D (colon); experiment: MTT assay; assay type: cell-based; conditions: Homo sapiens, HCT-116, 72 h; Table 5; 3 days incubation; read-out: MTT assay IC50 KRAS mutant (Colon) HCT-116 KRAS G13D
Method in brief: as §1

SW620 KRAS G12V (colon) = experiment: MTT assay; assay type: cell-based; conditions: Homo sapiens, SW-620, 72 h; Table 5; 3 days incubation; read-out: MTT assay IC50 KRAS mutant (Colon) SW620 KRAS G12V
Method in brief: as §1

HUVEC (VEGF) = experiment: MTT assay; assay type: cell-based; conditions: Homo sapiens, 72 h, Table 5, 3 days incubation
Method in brief: as §1

WiDR BRAF V600E (colon) = experiment: MTT assay; assay type: cell-based; conditions: Homo sapiens, 72 h, Table 5, 3 days incubation, read-out: MTT assay IC50 BRAF mutant (Colon) WiDR BRAF V600E
Method in brief: as §1

SMILES: CC(C)(C#N)c1cc(F)cc(C(=O)Nc2cc(Nc3ncccc3-c3ncnc4[nH]cnc34)ccc2F)c1 [Example 33, N-(5-(3-(9H-Purin-6-Yl)Pyridin-2-Ylamino)-2-Fluorophenyl)-3-(2-Cyanopropan-2-Yl)-5-Fluorobenzamide]
- antitumor effect (tumor growth inhibition) compared to the vehicle control [1]: 96.0%
- IC50 (LS513 KRAS G12V (colon); Table 4): 199 nM
- IC50 (B-Raf V600E): 33 nM
- IC50 (C-Raf): 24 nM
- IC50 (B-Raf): 94 nM

SMILES: Cc1cn(-c2cc(NC(=O)Nc3ccc(F)c(Nc4ncccc4-c4ncnc5[nH]cnc45)c3F)cc(C(F)(F)F)c2)cn1 [Example 59, 1-(3-(3-(9H-Purin-6-Yl)Pyridin-2-Ylamino)-2,4-Difluorophenyl)-3-(3-(4-Methyl-1H-Imidazol-1-Yl)-5-(Trifluoromethyl)Phenyl)Urea]
- antitumor effect (tumor growth inhibition) compared to the vehicle control [1]: 83.51%
- IC50 (LS513 KRAS G12V (colon); Table 4): 2140 nM

SMILES: CCN1CCN(Cc2ccc(NC(=O)Nc3ccc(F)c(Nc4ncccc4-c4ncnc5[nH]cnc45)c3F)cc2C(F)(F)F)CC1 [Example 60, 1-(3-(3-(9H-Purin-6-Yl)Pyridin-2-Ylamino)-2,4-Difluorophenyl)-3-(4-((4-Ethylpiperazin-1-Yl)Methyl)-3-(Trifluoromethyl)Phenyl)Urea]
- antitumor effect (tumor growth inhibition) compared to the vehicle control [1]: 69.06%
- IC50 (LS513 KRAS G12V (colon); Table 4): > 10000 nM

SMILES: COc1cc(C(=O)Nc2cc(Nc3ncccc3-c3ncnc4[nH]cnc34)ccc2F)cc(C(F)(F)F)c1 [Example 63, N-2-Fluoro-5-[3-(9H-Purin-6-Yl)Pyridin-2-Ylamino)Phenyl-3-Methoxy-5-(Trifluoromethyl)Benzamide]
- antitumor effect (tumor growth inhibition) compared to the vehicle control [1]: 57.9%
- IC50 (LS513 KRAS G12V (colon); Table 4): 690 nM

SMILES: O=C(Nc1cc(Nc2ncccc2-c2ncnc3[nH]cnc23)ccc1F)c1cc(C(F)(F)F)cc(C(F)(F)F)c1 [Example 65, N-2-Fluoro-5-[3-(9H-Purin-6-Yl)Pyridin-2-Ylamino)Phenyl-3,5-Bis(Trifluoromethyl)Benzamide]
- antitumor effect (tumor growth inhibition) [2]: 95.42%
- IC50 [3]: 208 nM
- IC50 (LS513 KRAS G12V (colon); Table 4): 100 nM
- IC50 (LS513 KRAS G12V (colon); Table 5): 322 nM
- IC50 (SW620 KRAS G12V (colon)): 700 nM
- IC50 (HUVEC (VEGF)): 850 nM
- IC50 (WiDR BRAF V600E (colon)): 247 nM
- IC50 (B-Raf V600E): 187 nM
- IC50 (C-Raf): 257 nM
- IC50 (B-Raf): 331 nM

SMILES: Cc1cc(C(=O)Nc2cc(Nc3ncccc3-c3ncnc4[nH]cnc34)ccc2F)cc(C(F)(F)F)c1 [Example 139, N-5-[(3-(9H-purin-6-yl)pyridin-2-yl)amino]-2-fluorophenyl-3-methyl-5-(trifluoromethyl)benzamide]
- antitumor effect (tumor growth inhibition) [2]: 91.04%
- IC50 (LS513 KRAS G12V (colon); Table 4): 99 nM
- IC50 (LS513 KRAS G12V (colon); Table 5): 96 nM
- IC50 (WiDR BRAF V600E (colon)): 116 nM

SMILES: O=C(Nc1cc(Nc2ncccc2-c2ncnc3[nH]cnc23)ccc1F)c1ccnc(C(F)(F)F)c1F [Example 148, N-5-[(3-(9H-purin-6-yl)pyridin-2-yl)amino]-2-fluorophenyl-3-fluoro-2-(trifluoromethyl)isonicotinamide]
- IC50 (LS513 KRAS G12V (colon); Table 4): 529 nM

SMILES: O=C(Nc1cc(Nc2ncccc2-c2ncnc3[nH]cnc23)ccc1F)c1cncc(C(F)(F)F)c1 [Example 149, N-5-[(3-(9H-purin-6-yl)pyridin-2-yl)amino]-2-fluorophenyl-5-(trifluoromethyl)nicotinamide]
- IC50 (LS513 KRAS G12V (colon); Table 4): 890 nM

SMILES: COc1ccc(C(=O)Nc2cc(Nc3ncccc3-c3ncnc4[nH]cnc34)ccc2F)cc1OC(F)(F)F [Example 150, N-5-[(3-(9H-purin-6-yl)pyridin-2-yl)amino]-2-fluorophenyl-4-methoxy-3-(trifluoromethoxy)benzamide]
- IC50 (LS513 KRAS G12V (colon); Table 4): 250 nM

SMILES: O=C(Nc1cc(Nc2ncccc2-c2ncnc3[nH]cnc23)ccc1F)c1ccnc(C(F)(F)F)c1 [Example 151, N-5-[(3-(9H-purin-6-yl)pyridin-2-yl)amino]-2-fluorophenyl-2-(trifluoromethyl)isonicotinamide]
- IC50 (LS513 KRAS G12V (colon); Table 4): 350 nM

SMILES: COc1ccc(NC(=O)c2cccc(C(C)(C)C#N)c2)cc1Nc1ncccc1-c1ncnc2[nH]cnc12 [Example 152, N-3-[(3-(9H-purin-6-yl)pyridin-2-yl)amino]-4-methoxyphenyl-3-(2-cyanopropan-2-yl)benzamide]
- IC50 (LS513 KRAS G12V (colon); Table 4): 2960 nM

SMILES: Cc1ccc(NC(=O)c2cccc(C(C)(C)C#N)c2)cc1Nc1ncccc1-c1ncnc2[nH]cnc12 [Example 153, N-3-[(3-(9H-purin-6-yl)pyridin-2-yl)amino]-4-methylphenyl-3-(2-cyanopropan-2-yl)benzamide]
- IC50 (LS513 KRAS G12V (colon); Table 4): 447 nM

SMILES: CC(C)(C#N)c1cc(C(=O)Nc2cc(Nc3ncccc3-c3ncnc4[nH]cnc34)ccc2F)cc(C(F)(F)F)c1 [Example 154, N-5-[(3-(9H-purin-6-yl)pyridin-2-yl)amino]-2-fluorophenyl-3-(2-cyanopropan-2-yl)-5-(trifluoromethyl)benzamide]
- antitumor effect (tumor growth inhibition) [2]: 83.19%
- IC50 (LS513 KRAS G12V (colon); Table 4): 326 nM
- IC50 (LS513 KRAS G12V (colon); Table 5): 326 nM
- IC50 (WiDR BRAF V600E (colon)): 97 nM

SMILES: Cc1cc(C(=O)Nc2cc(Nc3ncccc3-c3ncnc4[nH]cnc34)ccc2F)cc(C(C)(C)C#N)c1 [Example 155, N-5-[(3-(9H-purin-6-yl)pyridin-2-yl)amino]-2-fluorophenyl-3-(2-cyanopropan-2-yl)-5-methylbenzamide]
- IC50 (LS513 KRAS G12V (colon); Table 4): 145 nM

SMILES: COc1cc(C(=O)Nc2cc(Nc3ncccc3-c3ncnc4[nH]cnc34)ccc2F)c(Br)c(C(C)(C)C#N)c1 [Example 156, N-5-[(3-(9H-purin-6-yl)pyridin-2-yl)amino]-2-fluorophenyl-2-bromo-3-(2-cyanopropan-2-yl)-5-methoxybenzamide]
- IC50 (LS513 KRAS G12V (colon); Table 4): 517 nM

SMILES: N#Cc1cc(C(=O)Nc2cc(Nc3ncccc3-c3ncnc4[nH]cnc34)ccc2F)cc(C(F)(F)F)c1 [Example 157, N-5-[(3-(9H-purin-6-yl)pyridin-2-yl)amino]-2-fluorophenyl-3-cyano-5-(trifluoromethyl)benzamide]
- IC50 (LS513 KRAS G12V (colon); Table 4): 464 nM

SMILES: O=C(Nc1cc(Nc2ncccc2-c2ncnc3[nH]cnc23)ccc1F)c1cc(Br)cc(C(F)(F)F)c1 [Example 158, N-5-[(3-(9H-purin-6-yl)pyridin-2-yl)amino]-2-fluorophenyl-3-bromo-5-(trifluoromethyl)benzamide]
- IC50 (LS513 KRAS G12V (colon); Table 4): 283 nM
